This passage reports TGI and GI50 results from PubChem BioAssay (NCI).

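Briefly, cells in 96-well plates were exposed to five compound concentrations for 48 h, and endpoints were estimated by linear interpolation. GI50 marks 50% less growth. Definition used: TGI = concentration required for complete inhibition of growth.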

One test has as its system ACHN renal. Kind of test: NCI tumour cell line growth inhibition, 48 h.
Turning to `CC1(O)CCn2c(=O)c3cc4ccccc4cc3c(=O)n2C1O` (stereo not given), the TGI is > 100 µM.
As to `CC(C)[O-].CC(C)[O-].O=c1cccccc1[O-].O=c1cccccc1[O-].[Ti+4]`, the TGI was > 100 µM.
Still for that read-out and setting: the result for `COc1ccccc1NC(=O)/C(=C/c1ccccc1)C(C)=O` reads > 100 µM; that for `CC(=O)n1c(=O)c2cc3c(=O)n(-c4cccc(C#N)c4)c(=O)c3cc2c1=O`, > 100 µM.
Same read-out and setting: for `O=C(CC1(O)C(=O)Nc2c(Cl)ccc(Cl)c21)c1ccc(Cl)cc1Cl` (stereo not given) the value was 30.5 µM.
As to `CC1=NN(C(=O)c2ccncc2)C(=O)C1N=Nc1ccc(F)cc1` (stereo not given), the TGI was > 100 µM.
Regarding `COc1ccc(C2Oc3c(c(O)cc4c3[C@H](c3ccc(O)cc3O)[C@H](O)C(c3ccc(O)c(O)c3)O4)C[C@@H]2O)cc1O` (stereo not given in full), the TGI was > 100 µM.
Turning to `C=C1C2Oc3ccccc3C1N(c1ccccc1)O2` (stereo not given), the TGI was > 100 µM.
In the case of `C=CCNC(=O)N(CCC)CCCC(NC(C)=O)C(=O)NCc1ccccc1` (stereo not given), the TGI was > 100 µM.
In the case of `CC(=O)[CH-]C(=O)c1ccccc1.CC(=O)[CH-]C(=O)c1ccccc1.CC1(C)OCC(C2OC3OC(C)(C)OC3C2[O-])O1.CC[O-].[Ti+4]` (stereo not given), the GI50 was 17.3 µM and the TGI was 35.8 µM.
Regarding `CCOC(=O)C1(Cc2ccc3ccccc3c2)CCCCC(=O)N1` (stereo not given), the TGI was > 100 µM.
For `C[C@]12C/C(=C/O)C(=O)C(O)=C1CC[C@@H]1C2CC[C@@]2(C)C1CC[C@@H]2O` (stereo not given in full), the TGI came to 72.2 µM.
As to `CC(C)(C)NCC(COc1ccc([N+](=O)[O-])cc1)OP(c1ccccc1)c1ccccc1` (stereo not given), the TGI is > 100 µM.
Still for that read-out and setting: for `N#CC(C#N)=c1c2nsnc2c(=C(C#N)C#N)c2nsnc12` the value was 3.23 µM; for `Cn1c(=O)nc2n(-c3ccc(Cl)c(C(F)(F)F)c3)c3ccccc3nc-2c1=O`, > 100 µM.

For a further test, the system named is OVCAR-3 ovarian. Nature of the test: NCI tumour cell line growth inhibition, 48 h.
For the compound `Cc1c2ccncc2c(C)c2c1[nH]c1ccc(O)c(OCC(F)(F)F)c12`, the TGI amounted to 19 µM.
Consider `CC(C)(C)OC(=O)NC1CCCC1=O` (stereo not given), for which the TGI was > 100 µM.
Same read-out and setting: for `Cc1c(C(=O)/C=C/c2ccccc2[N+](=O)[O-])[n+](=O)c2ccccc2n1[O-]` the value was 13.3 µM; for `O=C1[C@H]2ON(c3ccccc3)C(c3ccco3)[C@H]2C(=O)N1c1ccc(Cc2ccc(N3C(=O)[C@@H]4ON(c5ccccc5)C(c5ccco5)[C@@H]4C3=O)cc2)cc1` (stereo not given in full), > 100 µM.
The same measure, in the same setting: for `Cc1cccc(C)c1N1C(=O)C(=O)C(c2nc3ccccc3s2)/C(=N/NC(=O)NN)C1=O` (stereo not given) the value was > 100 µM; for `CCCCCCC(C)CCCCCCCCCCC(=O)O` (stereo not given), > 100 µM.
For the compound `CC(C)(C)c1ccc(OC2CCO2)cc1` (stereo not given), the TGI was > 100 µM.
Still for that read-out and setting: for `CC1(O)CCn2c(=O)c3cc4ccccc4cc3c(=O)n2C1O` (stereo not given) the value was > 100 µM; for `CC(C)[O-].CC(C)[O-].O=c1cccccc1[O-].O=c1cccccc1[O-].[Ti+4]`, > 100 µM; for `COc1cc(CNc2nc3ccc(C(F)(F)F)cc3nc2-c2ccccc2)cc(OC)c1OC`, > 100 µM.
For `COc1ccccc1NC(=O)/C(=C/c1ccccc1)C(C)=O`, the TGI is > 100 µM.
Take `CC(=O)n1c(=O)c2cc3c(=O)n(-c4cccc(C#N)c4)c(=O)c3cc2c1=O`: the TGI is > 100 µM.
`O=C(CC1(O)C(=O)Nc2c(Cl)ccc(Cl)c21)c1ccc(Cl)cc1Cl` (stereo not given): the TGI came to 30.9 µM.
Still for that read-out and setting: the result for `CC1=NN(C(=O)c2ccncc2)C(=O)C1N=Nc1ccc(F)cc1` (stereo not given) reads > 100 µM.
For the compound `COc1ccc(C2Oc3c(c(O)cc4c3[C@H](c3ccc(O)cc3O)[C@H](O)C(c3ccc(O)c(O)c3)O4)C[C@@H]2O)cc1O` (stereo not given in full), the TGI was > 100 µM.
Turning to `C=C1C2Oc3ccccc3C1N(c1ccccc1)O2` (stereo not given), the TGI was > 100 µM.
Same read-out and setting: for `C=CCNC(=O)N(CCC)CCCC(NC(C)=O)C(=O)NCc1ccccc1` (stereo not given) the value was > 100 µM.
As to `CC(=O)[CH-]C(=O)c1ccccc1.CC(=O)[CH-]C(=O)c1ccccc1.CC1(C)OCC(C2OC3OC(C)(C)OC3C2[O-])O1.CC[O-].[Ti+4]` (stereo not given), the GI50 is 11.7 µM and the TGI worked out at 30.2 µM.
In turn, `CCOC(=O)C1(Cc2ccc3ccccc3c2)CCCCC(=O)N1` (stereo not given) displayed a TGI of 92.5 µM.
Still for that read-out and setting: the result for `COC(=O)C1C(=O)N(CCc2c[nH]c3ccccc23)C[C@@H]2CCC(=O)C[C@H]12` (stereo not given in full) reads > 100 µM.
Same read-out and setting: the result for `C[C@]12C/C(=C/O)C(=O)C(O)=C1CC[C@@H]1C2CC[C@@]2(C)C1CC[C@@H]2O` (stereo not given in full) reads 44.4 µM.
Still for that read-out and setting: the result for `CC(C)(C)NCC(COc1ccc([N+](=O)[O-])cc1)OP(c1ccccc1)c1ccccc1` (stereo not given) reads > 100 µM.
For `N#CC(C#N)=c1c2nsnc2c(=C(C#N)C#N)c2nsnc12`, the TGI turned out to be 8.34 µM.
`Cn1c(=O)nc2n(-c3ccc(Cl)c(C(F)(F)F)c3)c3ccccc3nc-2c1=O`: the TGI was > 100 µM.
Turning to `Cc1nc(-c2cccnc2)sc1C(=O)/C=C/c1cccc([N+](=O)[O-])c1`, the TGI was > 100 µM.

The test system of a further test is SK-MEL-28 melanoma. Nature of the test: NCI tumour cell line growth inhibition, 48 h.
Compound `Cc1c2ccncc2c(C)c2c1[nH]c1ccc(O)c(OCC(F)(F)F)c12` displayed a TGI of 22.4 µM.
Regarding `CC(C)(C)OC(=O)NC1CCCC1=O` (stereo not given), the TGI is > 100 µM.
Take `Cc1c(C(=O)/C=C/c2ccccc2[N+](=O)[O-])[n+](=O)c2ccccc2n1[O-]`: the TGI is 25.5 µM.
On the same count and under the same terms, for `O=C1[C@H]2ON(c3ccccc3)C(c3ccco3)[C@H]2C(=O)N1c1ccc(Cc2ccc(N3C(=O)[C@@H]4ON(c5ccccc5)C(c5ccco5)[C@@H]4C3=O)cc2)cc1` (stereo not given in full) the value was > 100 µM; for `Cc1cccc(C)c1N1C(=O)C(=O)C(c2nc3ccccc3s2)/C(=N/NC(=O)NN)C1=O` (stereo not given), > 100 µM.
Still for that read-out and setting: for `CCCCCCC(C)CCCCCCCCCCC(=O)O` (stereo not given) the value was > 100 µM; for `CC(C)(C)c1ccc(OC2CCO2)cc1` (stereo not given), > 100 µM.
Same read-out and setting: the result for `CC1(O)CCn2c(=O)c3cc4ccccc4cc3c(=O)n2C1O` (stereo not given) reads > 100 µM.
Take `CC(C)[O-].CC(C)[O-].O=c1cccccc1[O-].O=c1cccccc1[O-].[Ti+4]`: the TGI was > 100 µM.
`COc1cc(CNc2nc3ccc(C(F)(F)F)cc3nc2-c2ccccc2)cc(OC)c1OC`: the TGI was > 100 µM.
The same measure, in the same setting: the result for `COc1ccccc1NC(=O)/C(=C/c1ccccc1)C(C)=O` reads > 100 µM; that for `CC(=O)n1c(=O)c2cc3c(=O)n(-c4cccc(C#N)c4)c(=O)c3cc2c1=O`, > 100 µM; that for `O=C(CC1(O)C(=O)Nc2c(Cl)ccc(Cl)c21)c1ccc(Cl)cc1Cl` (stereo not given), 38.8 µM.
On to `CC1=NN(C(=O)c2ccncc2)C(=O)C1N=Nc1ccc(F)cc1` (stereo not given), for which the TGI is > 100 µM.
As for `C=C1C2Oc3ccccc3C1N(c1ccccc1)O2` (stereo not given), the TGI was > 100 µM.
Same read-out and setting: the result for `C=CCNC(=O)N(CCC)CCCC(NC(C)=O)C(=O)NCc1ccccc1` (stereo not given) reads > 100 µM.
Consider `CC(=O)[CH-]C(=O)c1ccccc1.CC(=O)[CH-]C(=O)c1ccccc1.CC1(C)OCC(C2OC3OC(C)(C)OC3C2[O-])O1.CC[O-].[Ti+4]` (stereo not given), for which the GI50 is 11.6 µM and the TGI was 25.1 µM.
For the compound `CCOC(=O)C1(Cc2ccc3ccccc3c2)CCCCC(=O)N1` (stereo not given), the TGI was > 100 µM.
Still for that read-out and setting: the result for `COC(=O)C1C(=O)N(CCc2c[nH]c3ccccc23)C[C@@H]2CCC(=O)C[C@H]12` (stereo not given in full) reads > 100 µM; that for `C[C@]12C/C(=C/O)C(=O)C(O)=C1CC[C@@H]1C2CC[C@@]2(C)C1CC[C@@H]2O` (stereo not given in full), 48.2 µM; that for `CC(C)(C)NCC(COc1ccc([N+](=O)[O-])cc1)OP(c1ccccc1)c1ccccc1` (stereo not given), > 100 µM.
`N#CC(C#N)=c1c2nsnc2c(=C(C#N)C#N)c2nsnc12`: the TGI stood at 3.3 µM.
In the case of `Cn1c(=O)nc2n(-c3ccc(Cl)c(C(F)(F)F)c3)c3ccccc3nc-2c1=O`, the TGI was > 100 µM.
On to `Cc1nc(-c2cccnc2)sc1C(=O)/C=C/c1cccc([N+](=O)[O-])c1`, for which the TGI was > 100 µM.

In another test the test system is HOP-92 NSCLC. Nature of the test: NCI tumour cell line growth inhibition, 48 h.
Take `Cc1c2ccncc2c(C)c2c1[nH]c1ccc(O)c(OCC(F)(F)F)c12`: the TGI amounted to 16.5 µM.
On the same count and under the same terms, the result for `CC(C)(C)OC(=O)NC1CCCC1=O` (stereo not given) reads > 100 µM; that for `Cc1c(C(=O)/C=C/c2ccccc2[N+](=O)[O-])[n+](=O)c2ccccc2n1[O-]`, 27.4 µM.
For the compound `O=C1[C@H]2ON(c3ccccc3)C(c3ccco3)[C@H]2C(=O)N1c1ccc(Cc2ccc(N3C(=O)[C@@H]4ON(c5ccccc5)C(c5ccco5)[C@@H]4C3=O)cc2)cc1` (stereo not given in full), the TGI was > 100 µM.
The same measure, in the same setting: the result for `Cc1cccc(C)c1N1C(=O)C(=O)C(c2nc3ccccc3s2)/C(=N/NC(=O)NN)C1=O` (stereo not given) reads > 100 µM; that for `CCCCCCC(C)CCCCCCCCCCC(=O)O` (stereo not given), > 100 µM.
In turn, `CC(C)(C)c1ccc(OC2CCO2)cc1` (stereo not given) showed a TGI of 82 µM.
On the same count and under the same terms, the result for `CC1(O)CCn2c(=O)c3cc4ccccc4cc3c(=O)n2C1O` (stereo not given) reads > 100 µM.
Still for that read-out and setting: the result for `CC(C)[O-].CC(C)[O-].O=c1cccccc1[O-].O=c1cccccc1[O-].[Ti+4]` reads 90.8 µM; that for `COc1ccccc1NC(=O)/C(=C/c1ccccc1)C(C)=O`, > 100 µM.
Still for that read-out and setting: for `CC(=O)n1c(=O)c2cc3c(=O)n(-c4cccc(C#N)c4)c(=O)c3cc2c1=O` the value was > 100 µM; for `O=C(CC1(O)C(=O)Nc2c(Cl)ccc(Cl)c21)c1ccc(Cl)cc1Cl` (stereo not given), 49.6 µM; for `CC1=NN(C(=O)c2ccncc2)C(=O)C1N=Nc1ccc(F)cc1` (stereo not given), > 100 µM.
`COc1ccc(C2Oc3c(c(O)cc4c3[C@H](c3ccc(O)cc3O)[C@H](O)C(c3ccc(O)c(O)c3)O4)C[C@@H]2O)cc1O` (stereo not given in full): the TGI is > 100 µM.
In the case of `C=CCNC(=O)N(CCC)CCCC(NC(C)=O)C(=O)NCc1ccccc1` (stereo not given), the TGI is > 100 µM.
With `CC(=O)[CH-]C(=O)c1ccccc1.CC(=O)[CH-]C(=O)c1ccccc1.CC1(C)OCC(C2OC3OC(C)(C)OC3C2[O-])O1.CC[O-].[Ti+4]` (stereo not given), the GI50 is 6.84 µM and the TGI was determined as 20.6 µM.
In turn, `CCOC(=O)C1(Cc2ccc3ccccc3c2)CCCCC(=O)N1` (stereo not given) showed a TGI of 59.2 µM.
In the case of `COC(=O)C1C(=O)N(CCc2c[nH]c3ccccc23)C[C@@H]2CCC(=O)C[C@H]12` (stereo not given in full), the TGI was > 100 µM.
Still for that read-out and setting: for `C[C@]12C/C(=C/O)C(=O)C(O)=C1CC[C@@H]1C2CC[C@@]2(C)C1CC[C@@H]2O` (stereo not given in full) the value was 46.4 µM; for `N#CC(C#N)=c1c2nsnc2c(=C(C#N)C#N)c2nsnc12`, 3.35 µM; for `Cn1c(=O)nc2n(-c3ccc(Cl)c(C(F)(F)F)c3)c3ccccc3nc-2c1=O`, > 100 µM.
Still for that read-out and setting: for `Cc1nc(-c2cccnc2)sc1C(=O)/C=C/c1cccc([N+](=O)[O-])c1` the value was > 100 µM.
